In ChEMBL document CHEMBL5380816, “Inclusion of Nitrofurantoin into the Realm of Cancer Chemotherapy via Biology-Oriented Synthesis and Drug Repurposing” (J Med Chem, 2023):
The source made the active and inactive calls. No cut-off for these calls is given here.

Assays:
HepG2 [1] = assay: Induction of oxidative stress in human HepG2 cells assessed as cell death by measuring redox alteration fluorescence incubated at 0.027 uM for 72 hrs in presence of dihydro dichlorofluorescein diacetate by DCFH-DA based flow cytometric analysis relative to control; format: functional
Caco-2 [2] = assay: Anticancer activity against human Caco-2 cells incubated for 24 hrs by MTT assay; format: functional, cell-based; settings: Caco-2, 24 h
dsDNA = assay: Induction of damage in dsDNA (unknown origin) assessed as DNA disruption by measuring damage constant at 100 uM incubated for 2.5 hrs by EvaGreen based fluorescence plate reader analysis; format: nucleic-acid assay
MCF7 [3] = assay: Anticancer activity against human MCF7 cells assessed as losing contact with neighbouring cells incubated at 0.11 uM for 72 hrs by phase contrast inverted microscopic analysis; format: functional, cell-based
HepG2 [4] = assay: Induction of apoptosis in human HepG2 cells assessed as early apoptotic cells incubated at 0.11 uM for 72 hrs by annexin V-FITC based propidium iodide dual staining assay (reference value: 1.74%); format: functional
MCF7 [5] = assay: Anticancer activity against human MCF7 cells assessed as round cells incubated at 0.11 uM for 72 hrs by phase contrast inverted microscopic analysis; format: functional, cell-based
Caco-2 [6] = assay: Induction of apoptosis in human Caco-2 cells assessed as total apoptotic cells incubated at 0.11 uM for 72 hrs by annexin V-FITC based propidium iodide dual staining assay (reference value: 0.04 +/- 0.005%); format: functional
HepG2 [7] = assay: Anticancer activity against human HepG2 cells assessed as round cells incubated at 0.11 uM for 72 hrs by phase contrast inverted microscopic analysis; format: functional, cell-based
MCF7 [8] = assay: Induction of DNA damage in human MCF7 cells assessed as reduction of p53 ubiquitination at 5 uM incubated for 24 hrs by Western blot analysis; format: functional, cell-based
UMUC3 = assay: Anti-clonogenicic activity in human UC3 cells assessed as reduction of colony formation at 5 uM for 24 hrs by crystal violet based staining relative to control; format: functional; set-up: scale not given: the % may be the effect or the level left
Calf thymus DNA = assay: Induction of calf thymus DNA damage assessed as disrupted by DNA by measuring decrease in fluorescence intensity at 200 uM by EvaGreen based fluorescence plate reader analysis; format: nucleic-acid assay; settings: Bos taurus
Caco-2 [9] = assay: Anticancer activity against human Caco-2 cells assessed as absence of normal spindle shape incubated at 0.11 uM for 72 hrs by phase contrast inverted microscopic analysis; format: functional, cell-based
MCF7 [10] = assay: Anticancer activity against human MCF7 cells assessed as cell shrinkage incubated at 0.11 uM for 72 hrs by phase contrast inverted microscopic analysis; format: functional, cell-based
HepG2 [11] = assay: Induction of apoptosis in human HepG2 cells assessed as necrotic cells incubated at 0.11 uM for 72 hrs by annexin V-FITC based propidium iodide dual staining assay (reference value: 0.33%); format: functional
HepG2 [12] = assay: Induction of apoptosis in human HepG2 cells assessed as viable cells by measuring green uniform patch incubated at 0.017 uM for 72 hrs by acridine orange-ethidium bromide dual staining based fluorescence microscopic analysis; format: functional, cell-based
Caco-2 [13] = assay: Induction of apoptosis in human Caco-2 cells assessed as necrotic cells incubated at 0.017 uM for 72 hrs by annexin V-FITC based propidium iodide dual staining assay (reference value: 0.02%); format: functional
MCF7 [14] = assay: Induction of oxidative stress in human MCF7 cells assessed as cell death by measuring redox alteration fluorescence incubated at 0.098 uM for 72 hrs in presence of dihydro dichlorofluorescein diacetate by DCFH-DA based flow cytometric analysis relative to control; format: functional
MCF7 [15] = assay: Induction of apoptosis in human MCF7 cells assessed as viable cells by measuring green uniform patch incubated at 0.017 uM for 72 hrs by acridine orange-ethidium bromide dual staining based fluorescence microscopic analysis; format: functional, cell-based
HepG2 [16] = assay: Anticancer activity against human HepG2 cells assessed as absence of normal spindle shape incubated at 0.097uM for 72 hrs by phase contrast inverted microscopic analysis; format: functional, cell-based
MCF7 [17] = assay: Anticancer activity against human MCF7 cells assessed as round cells incubated at 0.097uM for 72 hrs by phase contrast inverted microscopic analysis; format: functional, cell-based
HepG2 [18] = assay: Induction of apoptosis in human HepG2 cells assessed as early apoptotic cells incubated at 0.097 uM for 72 hrs by annexin V-FITC based propidium iodide dual staining assay (reference value: 1.74%); format: functional
HepG2 [19] = assay: Induction of oxidative stress in human HepG2 cells assessed as cell death by measuring redox alteration fluorescence incubated at 0.098 uM for 72 hrs in presence of dihydro dichlorofluorescein diacetate by DCFH-DA based flow cytometric analysis relative to control; format: functional
MCF7 [20] = assay: Anticancer activity against human MCF7 cells assessed as smaller cells incubated at 0.097uM for 72 hrs by phase contrast inverted microscopic analysis; format: functional, cell-based
HepG2 [21] = assay: Induction of apoptosis in human HepG2 cells assessed as necrotic cells incubated at 0.097 uM for 72 hrs by annexin V-FITC based propidium iodide dual staining assay (reference value: 0.33%); format: functional
MCF7 [22] = assay: Induction of apoptosis in human MCF7 cells assessed as late apoptotic cells incubated at 0.097 uM for 72 hrs by annexin V-FITC based propidium iodide dual staining assay (reference value: 0.01%); format: functional
Caco-2 [23] = assay: Induction of oxidative stress in human Caco-2 cells assessed as cell death by measuring redox alteration fluorescence incubated at 0.017 uM for 72 hrs in presence of dihydro dichlorofluorescein diacetate by DCFH-DA based flow cytometric analysis relative to control; format: functional
MCF7 [24] = assay: Induction of apoptosis in human MCF7 cells assessed as increase in Bax expression level relative to control; format: functional
MCF7 [25] = assay: Induction of apoptosis in human MCF7 cells assessed as necrotic cells incubated at 0.098 uM for 72 hrs by annexin V-FITC based propidium iodide dual staining assay (reference value: 0.03%); format: functional
Caco-2 [26] = assay: Anticancer activity against human Caco-2 cells assessed as smaller cells incubated at 0.098uM for 72 hrs by phase contrast inverted microscopic analysis; format: functional, cell-based

C#CCN1C(=O)CN(/N=C/c2ccc([N+](=O)[O-])o2)C1=O gave an Activity (HepG2 [1]) of 54.19%, an IC50 (Caco-2 [2]) of 89 µM and an Activity (dsDNA) of 8.41. The Activity (MCF7 [3]) was “Active”, the Activity (HepG2 [4]) was 4.8% and the Activity (MCF7 [5]) was “Active”. For the same compound, the Activity (Caco-2 [6]) was 45.81%, the Activity (HepG2 [7]) was “Active” and the Activity (MCF7 [8]) was “Active”. For the same compound, the Activity (UMUC3) was 75%, the Activity (Calf thymus DNA) was “Active” and the Activity (Caco-2 [9]) was “Active”. The Activity (MCF7 [10]) was “Active” and the Activity (HepG2 [11]) was 3.66%.

For O=c1[nH]cc(F)c(=O)[nH]1 [FLUOROURACIL], the Activity (HepG2 [12]) was “Active”, the Activity (Caco-2 [13]) was 0.97% and the Activity (MCF7 [14]) was 4.24%. The Activity (MCF7 [15]) was “Active”.

In the case of NS(=O)(=O)c1ccc(-n2cc(CN3C(=O)CN(/N=C/c4ccc([N+](=O)[O-])o4)C3=O)nn2)cc1, the Activity (HepG2 [16]) is reported as “Active”, the Activity (MCF7 [17]) is reported as “Active” and the Activity (HepG2 [18]) is reported as 21.02%. For the same compound, the Activity (HepG2 [19]) was 48.51%, the Activity (MCF7 [20]) was “Active” and the Activity (HepG2 [21]) was 0%. For the same compound, the Activity (MCF7 [22]) was 60.48%, the Activity (Caco-2 [23]) was 22.21% and the Activity (MCF7 [24]) was 300%.

O=C(CN1C(=O)CN(/N=C/c2ccc([N+](=O)[O-])o2)C1=O)c1ccc(Cl)cc1 was tested, and the Activity (MCF7 [25]) was 3.18% and the Activity (Caco-2 [26]) was “Active”.
